Values of other authors as cited in patent US20030175234A1, “Use of polyphenols to treat skin conditions” (priority 2002, published 2003).
Where two headings read alike, the source gives them in different places.

Assays:
[1] = system: Ultraviolet-B (UV-B) light ray induced leukocyte infiltration; conditions: mouse skin
[2] = system: Ultraviolet-B (UV-B) light ray induced leukocyte infiltration; conditions: human skin

## O=C(O[C@@H]1Cc2c(O)cc(O)cc2O[C@@H]1c1cc(O)c(O)c(O)c1)c1cc(O)c(O)c(O)c1 [epigallocatechin gallate]
[1]
  block of UV-B induced leukocyte infiltration: can block
[2]
  block of UV-B induced leukocyte infiltration: can block
